Publication PMC7766104, “Inhibition of Biofilm Formation by Modified Oxylipins from the Shipworm Symbiont Teredinibacter turnerae” (Marine Drugs, 2020)
Values after ≈ are worked out from the molar mass of the structure shown. “Also recorded” adds a separate entry of the source.

Key:
S. aureus (ATCC 6538) = assay: Antimicrobial microdilution assay (resazurin); format: cell-based; conditions: Staphylococcus aureus, ATCC6538; planktonic; >98% growth inhibition; 24 h
Procedure: (§1) All seven compounds were subjected to a panel of bioactivity assays to assess their effects on staphylococcal pathogens and mammalian cells (Table 2). […] This fluorescent stain specifically binds to sialic acid and the N-acetylglucosaminyl residues of the biofilm. […] Growth inhibition in the microbial pathogens was quantified by monitoring the conversion of resazurin to the fluorescent resorufin product.
(§2) After 24 h of incubation, 0.02% resazurin (20 µL) was added to each well, and the fluorescence was measured at 530 nm excitation and 590 nm emission. MIC is the lowest concentration at which there was no reduction of the rezasurin dye, equivalent to 98% inhibition of microbial growth. Assays were done in two independent trials with four independent replicates.

[1] = tested on: Methicillin-resistant S. aureus (ATCC 43300); assay: Antimicrobial microdilution assay (resazurin); format: cell-based; conditions: Staphylococcus aureus; planktonic; >98% growth inhibition; 24 h; read-out: MIC Methicillin-Resistant S. aureus (ATCC 43,300)
Procedure: as §1, §2

[2] = tested on: S. epidermidis RP62A (ATCC 35984) biofilm formation; assay: Biofilm inhibition assay (WGA488 staining of formed biofilm); format: cell-based, Staphylococcus epidermidis; conditions: for Selectivity Index (MICPlanktonic/MBICBiofilm): S. epidermidis RP62A, MIC planktonic / MBIC biofilm; for MBIC S. epidermidis RP62A (ATCC 35984): lowest concentration causing >98% inhibition of biofilm formation, two independent trials in quadruplicates
From the text: as §1
(§3) The biofilm inhibition assay was done according to the method of Skogman et al. (2012). […] A single colony from the CRA plate was transferred in 50 mL trypticasein soy broth supplemented with glucose (TSBg) and grown overnight at 35 °C, 150 rpm. The turbidity of the culture was adjusted to match the 0.5 McFarland standard (1 × 10^8 cells/mL) and diluted 100-fold prior to inoculation in a 96-well plate. […] TSBg served as the negative control, and positive controls were chloramphenicol (Sigma-Aldrich) for planktonic cells and dispersin B (Kane Biotech) for biofilms. Dispersin B is a 40 kDa glycoside hydrolase which dissolves mature bacterial biofilms. The plates were incubated for 20 h at 37 °C without shaking to facilitate biofilm formation. At the end of the incubation period, the planktonic suspension was transferred to another 96-well plate to assess cell viability. A 20 µL-aliquot of 0.02% resazurin was added to each well and incubated for 30 min at 37 °C, 150 rpm. Fluorescence was measured using a 530 nm excitation filter and a 590 nm emission filter. To quantify the formed biofilm, 100 µL-aliquot of wheat germ agglutinin Alexa Fluor 488 (WGA488) probe (50 µg/mL) was added to each well of the original plate and incubated in the dark at 4 °C for 5 h. At the end of incubation, the plate was washed with sterile PBS (3×) and air-dried at room temperature to remove the unbound WGA488 probe. Bound stain to the biofilm was dissolved in 33% glacial acetic acid and quantified by fluorescence measurement at 485 nm/420 nm excitation filters, and 528 nm/520 nm emission filters. […] This was done in two independent trials with four independent replicates.

[3] = tested on: planktonic S. epidermidis RP62A (ATCC 35984); assay: Planktonic cell viability, resazurin (from biofilm assay plate); format: cell-based, Staphylococcus epidermidis; conditions: for MIC: Staphylococcus epidermidis, ATCC35984, planktonic cells, lowest concentration with >98% growth inhibition; for bioactivity against microbial pathogens or mammalian cells (in words): statement covers the whole panel of Table 2 (staphylococcal pathogens and MDCK cells)
From the text: as §1, §3

[4] = tested on: MDCK NBL-2 (ATCC CCL-34) cells; assay: cells; conditions: for IC50: Canis lupus familiaris, MDCK, 72 h, read-out: IC50 MDCK NBL-2 (ATCC CCL-34)
From the text: as §1
The mammalian antiproliferative assay was done according to Lacerna et al. (2019) and modified from the method of Mossman (1983). […] At 72 h post-incubation, the cells were treated with MTT and the absorbance at 570 nm was read. The IC50 was calculated using GraphPad Prism 5 based on a 4-point sigmoidal non-linear regression analysis of cell viability vs. log concentration of the inhibitor. The assay was done in two independent trials with four independent replicates.

Row | SMILES | MIC (S. aureus (ATCC 6538)) | MIC [1] | Selectivity Index (MICPlanktonic/MBICBiofilm) [2] | MBIC S. epidermidis RP62A (ATCC 35984) [2] | MIC [3] | bioactivity against microbial pathogens or mammalian cells (in words) [3] | cytotoxicity / antiproliferative action in mammalian MDCK cells (in words) [4] | IC50 [4] | inhibition of biofilm formation in S. epidermidis (in words) [2] | antimicrobial activity against planktonic S. epidermidis (in words) [3]
1 | Cc1onc(-c2ccccc2)c1C(=O)N[C@@H]1C(=O)N2[C@@H]1SC(C)(C)[C@@H]2C(=O)O [oxacillin] | 0.5 µg/mL (≈ 1.25 µM) | 8 µg/mL (≈ 19.9 µM) |  |  |  |  |  |  |  | 
2 | CCCCCCCCCCCCCCCC(=O)O [Compound 4, palmitic acid] | > 128 µg/mL | > 128 µg/mL | ~1 | >128 µg/mL | > 128 µg/mL | did not show any significant bioactivity | cytotoxic activity | > 128 µg/mL |  | 
3 | CCCCC[C@@H]1O[C@H]1CCCCCCCCCCC(=O)O [Compound 6, trans-12,13-epoxy-octadecanoic acid] | > 128 µg/mL | > 128 µg/mL | >8 | 16 µg/mL | > 128 µg/mL |  | no antiproliferative action | > 128 µg/mL | inhibited biofilm formation | 
4 | CCCCCCCCCCCCCCCCCC(=O)O [Compound 5, stearic acid] | > 128 µg/mL | > 128 µg/mL | ~1 | >128 µg/mL | > 128 µg/mL | did not show any significant bioactivity |  | > 128 µg/mL |  | 
5 | CCCCC/C=C/C(=O)CCCCCCCC(=O)O [Compound 2, (E)-9-oxohexadec-10-enoic acid] | > 128 µg/mL | > 128 µg/mL | ~1 |  | > 128 µg/mL |  |  | 33 µg/mL (≈ 123 µM) | inhibited biofilm formation | 
6 | O=C(N[C@H](CO)[C@H](O)c1ccc([N+](=O)[O-])cc1)C(Cl)Cl [chloramphenicol] |  |  |  |  | 8 µg/mL (≈ 24.8 µM) |  |  |  |  | 
7 | CCCCCC1OC1C(O)CCCCCCCCCC(=O)O (stereo not shown) [Compound 1, 11-hydroxy-12,13-epoxy-octadecanoic acid] | > 128 µg/mL | > 128 µg/mL | ~4 | 32 µg/mL | 128 µg/mL (≈ 407 µM) |  |  | 61.7 µg/mL (≈ 196 µM) | inhibited biofilm formation | 
8 | CCCCC/C=C\CCCCCCCCCCC(=O)O [Compound 7, 12(Z)-octadecenoic acid] |  |  |  | >128 µg/mL |  |  |  |  |  | 
9 | CCCCC/C=C/C(=O)CCCCCCCCCC(=O)O [Compound 3, (E)-11-oxooctadec-12-enoic acid] | > 128 µg/mL | > 128 µg/mL | ~1 | 16 µg/mL | 16 µg/mL (≈ 54 µM) |  | demonstrated cytotoxicity | 13.6 µg/mL (≈ 45.9 µM) | inhibited biofilm formation; also recorded: potent but non-selective activity | showed antimicrobial activity
